Experimental data taken from ChEMBL document CHEMBL1201862, “PubChem BioAssay data set” (2004).
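Exposure lasted 48 hours, with cells grown in 96-well plates and compounds tested at five concentrations. Abbreviation: GI50, concentration required for 50% inhibition of growth.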 Activity calls are given as the source filed them. No stated cut-off is given here; in the data, active = GI50 up to about 1.1 µM and inactive = higher.

Assays:
Assay in all cases: inhibition of tumour cell growth, NCI panel, 48 h
SK-OV-3 = system: SK-OV-3
OVCAR-3 = system: OVCAR-3
OVCAR-8 = system: OVCAR-8
SN12C = system: SN12C
786-0 = system: 786-0
CAKI-1 = system: CAKI-1
HCT-15 = system: HCT-15
ACHN = system: ACHN
SW-620 = system: SW-620
HT-29 = system: HT-29
NCI-H522 = system: NCI-H522
SNB-19 = system: SNB-19
NCI-H226 = system: NCI-H226
CCRF-CEM = system: CCRF-CEM
HCC 2998 = system: HCC 2998
RPMI-8226 = system: RPMI-8226
SK-MEL-2 = system: SK-MEL-2
OVCAR-4 = system: OVCAR-4
UO-31 = system: UO-31
HL-60 = system: HL-60

SMILES	GI50 (SK-OV-3)	GI50 (OVCAR-3)	GI50 (OVCAR-8)	GI50 (SN12C)	GI50 (786-0)	GI50 (CAKI-1)	GI50 (HCT-15) [µM]	GI50 (ACHN)	GI50 (SW-620)	GI50 (HT-29)	GI50 (NCI-H522)	GI50 (SNB-19)	GI50 (NCI-H226)	GI50 (CCRF-CEM)	GI50 (HCC 2998)	GI50 (RPMI-8226)	GI50 (SK-MEL-2)	GI50 (OVCAR-4)	GI50 (UO-31)	GI50 (HL-60)
O=C(Nc1ccc(Nc2ccc3c(c2)C(=O)c2ccccc2C3=O)c2c1C(=O)c1ccccc1C2=O)c1ccccc1	67.9 µM (inactive)	16 µM (inactive)	> 86.5 µM (inactive)	> 100 µM (inactive)	38.8 µM (inactive)	> 100 µM (inactive)	7.62	> 100 µM (inactive)	38.6 µM (inactive)	43.7 µM (inactive)	3.36 µM (inactive)	> 80.5 µM (inactive)	> 100 µM (inactive)	14.6 µM (inactive)	6.84 µM (inactive)	38.7 µM (inactive)	11.9 µM (inactive)	> 100 µM (inactive)	> 100 µM (inactive)	17.7 µM (inactive)
Nc1cc2c3c(cccc3c1)C(=O)N(CCN1CCN(CCN3C(=O)c4cccc5cc(N)cc(c45)C3=O)CC1)C2=O	> 100 µM (inactive)	> 100 µM (inactive)	74.3 µM (inactive)	> 100 µM (inactive)	> 100 µM (inactive)	> 100 µM (inactive)	> 100	> 100 µM (inactive)	38.8 µM (inactive)	32 µM (inactive)	> 100 µM (inactive)	76.2 µM (inactive)	31.5 µM (inactive)	> 100 µM (inactive)	> 100 µM (inactive)	> 100 µM (inactive)	> 100 µM (inactive)	> 100 µM (inactive)	37.9 µM (inactive)	> 100 µM (inactive)
Cc1cnc[nH]c1=O	> 100 µM (inactive)	> 100 µM (inactive)	> 100 µM (inactive)	> 100 µM (inactive)	> 100 µM (inactive)	> 100 µM (inactive)	> 100	> 100 µM (inactive)	> 100 µM (inactive)	> 100 µM (inactive)	> 100 µM (inactive)	> 100 µM (inactive)	> 100 µM (inactive)	> 100 µM (inactive)	> 100 µM (inactive)	> 100 µM (inactive)	> 100 µM (inactive)	> 100 µM (inactive)	> 100 µM (inactive)	> 100 µM (inactive)
OCCCc1cc(O)c2c(c1)C(CO)C(c1ccc(O)c(O)c1)O2 (stereo not given)	> 100 µM (inactive)	> 100 µM (inactive)	> 100 µM (inactive)	> 100 µM (inactive)	> 100 µM (inactive)	> 100 µM (inactive)	> 100	> 100 µM (inactive)	> 100 µM (inactive)	> 100 µM (inactive)	48.8 µM (inactive)	> 100 µM (inactive)	> 100 µM (inactive)	> 100 µM (inactive)	> 100 µM (inactive)	> 10 µM (inactive)	> 100 µM (inactive)	> 10 µM (inactive)	> 100 µM (inactive)	> 100 µM (inactive)
ClCc1nc2cc(Cl)ccc2o1	14.8 µM (inactive)	1.85 µM (inactive)	4.91 µM (inactive)	6.53 µM (inactive)	1.67 µM (inactive)	1.65 µM (inactive)	3.39	1.72 µM (inactive)	3.49 µM (inactive)	2.54 µM (inactive)	1.6 µM (inactive)	7.48 µM (inactive)	15.9 µM (inactive)	1.96 µM (inactive)	2.26 µM (inactive)	1.42 µM (inactive)	5.78 µM (inactive)	1.71 µM (inactive)	1.02 µM (active)	2.49 µM (inactive)
O=C1CCCC2(c3ccccc3)Nc3ccccc3N12 (stereo not given)	> 100 µM (inactive)	> 100 µM (inactive)	> 100 µM (inactive)	> 100 µM (inactive)	> 100 µM (inactive)	> 100 µM (inactive)	> 100	> 100 µM (inactive)	> 100 µM (inactive)	> 100 µM (inactive)	> 100 µM (inactive)	> 100 µM (inactive)	> 100 µM (inactive)	> 100 µM (inactive)	> 100 µM (inactive)	> 100 µM (inactive)	> 100 µM (inactive)	> 100 µM (inactive)	> 100 µM (inactive)	55.6 µM (inactive)
Cc1cc(Cl)ccc1Nc1nc2c(s1)C(=O)c1ccccc1C2=O	8.49 µM (inactive)	1.43 µM (inactive)	2.88 µM (inactive)	1.8 µM (inactive)	1.71 µM (inactive)	6.3 µM (inactive)	1.85	3.98 µM (inactive)	1.94 µM (inactive)	18.3 µM (inactive)	1.99 µM (inactive)	4.75 µM (inactive)	6.34 µM (inactive)	2.18 µM (inactive)	6.34 µM (inactive)	2.92 µM (inactive)	8.45 µM (inactive)	3.29 µM (inactive)	4.45 µM (inactive)	0.621 µM (active)
Cc1ccc(OCC2OC(n3cnc4c(Cl)nc(Nc5cc(Cl)cc(Cl)c5)nc43)CC2Oc2ccc(C)cc2)cc1 (stereo not given)	> 100 µM (inactive)	> 100 µM (inactive)	> 100 µM (inactive)	> 100 µM (inactive)	> 100 µM (inactive)	> 100 µM (inactive)	> 100	> 100 µM (inactive)	> 100 µM (inactive)	> 100 µM (inactive)	> 100 µM (inactive)	> 100 µM (inactive)	> 100 µM (inactive)	> 100 µM (inactive)	> 100 µM (inactive)	> 100 µM (inactive)	> 100 µM (inactive)	10.4 µM (inactive)	> 100 µM (inactive)	> 100 µM (inactive)
CC1=C(C)C(=O)OC(C(C)(O)C2(O)CC3OC34C3CC(O)C56OC5C=CC(=O)C6(C)C3CCC42C)C1 (stereo not given)	3.9 µM (inactive)	1.19 µM (inactive)	1.85 µM (inactive)	2.82 µM (inactive)	1.51 µM (inactive)	2.5 µM (inactive)	0.791	0.845 µM (active)	3.03 µM (inactive)	1.15 µM (inactive)	0.361 µM (active)	4.12 µM (inactive)	4.76 µM (inactive)	0.851 µM (active)	1.26 µM (inactive)	1.24 µM (inactive)	2.59 µM (inactive)	4.71 µM (inactive)	0.341 µM (active)	0.264 µM (active)
CSc1nnc(SCc2nn3c(=O)cc(C)nc3s2)s1	> 100 µM (inactive)	> 100 µM (inactive)	> 100 µM (inactive)	> 100 µM (inactive)	> 100 µM (inactive)	> 100 µM (inactive)	> 100	> 100 µM (inactive)	> 100 µM (inactive)	> 100 µM (inactive)	> 100 µM (inactive)	> 100 µM (inactive)	> 100 µM (inactive)	> 100 µM (inactive)	> 100 µM (inactive)	> 100 µM (inactive)	> 100 µM (inactive)	24.4 µM (inactive)	> 100 µM (inactive)	> 100 µM (inactive)
COc1ccc(/C=C\c2cc(OC)c(OC)c(OC)c2)cc1OCC(=O)O	29 µM (inactive)	2.69 µM (inactive)	5.64 µM (inactive)	9.18 µM (inactive)	37.6 µM (inactive)	48.2 µM (inactive)	9.62	10.2 µM (inactive)	3.78 µM (inactive)	> 100 µM (inactive)	3.36 µM (inactive)	4.18 µM (inactive)	15.1 µM (inactive)	4.68 µM (inactive)	88.9 µM (inactive)	4.84 µM (inactive)	6.68 µM (inactive)	20.7 µM (inactive)	7.13 µM (inactive)	2.84 µM (inactive)
CC(=O)OC1CC2C(C)(C)OC(=O)CC(OC(C)=O)[C@]2(C)C2CCC3(C)C(=CCC3c3ccoc3)[C@]12C (stereo not given in full)	21.7 µM (inactive)	16.2 µM (inactive)	18.1 µM (inactive)	32.6 µM (inactive)	19.4 µM (inactive)	31.3 µM (inactive)	26.2	25.1 µM (inactive)	32.1 µM (inactive)	15.7 µM (inactive)	15.6 µM (inactive)	14.3 µM (inactive)	14.9 µM (inactive)	18.2 µM (inactive)	18.4 µM (inactive)	18.2 µM (inactive)	10.9 µM (inactive)	46.5 µM (inactive)	23.9 µM (inactive)	16.1 µM (inactive)
Cn1cnc(S[C@H]2[C@H]3C(=O)C=C4S[C@H]5C[C@]42C2=C(N5)C(=O)c4[nH]cc5c4C2=[N+]3CC5)c1C[C@H](N)C(=O)O	21.4 µM (inactive)	3.5 µM (inactive)	13.6 µM (inactive)	3.56 µM (inactive)	19 µM (inactive)	27 µM (inactive)	30.8	14.8 µM (inactive)	6.14 µM (inactive)	4.09 µM (inactive)	4.58 µM (inactive)	17.6 µM (inactive)	19.4 µM (inactive)	17.1 µM (inactive)	16.2 µM (inactive)	16.7 µM (inactive)	13.7 µM (inactive)	17.1 µM (inactive)	17.5 µM (inactive)	15.3 µM (inactive)
COc1ccc2c(c1OC)C(C(Cl)(Cl)Cl)N1CCc3cc4c(cc3C1=C2)OCO4 (stereo not given)	23.9 µM (inactive)	7.43 µM (inactive)	8.11 µM (inactive)	13.1 µM (inactive)	15.2 µM (inactive)	40.8 µM (inactive)	33.3	22.9 µM (inactive)	21.2 µM (inactive)	25.8 µM (inactive)	13.9 µM (inactive)	5.82 µM (inactive)	10.9 µM (inactive)	6.71 µM (inactive)	10.8 µM (inactive)	2.08 µM (inactive)	17.2 µM (inactive)	5.93 µM (inactive)	35.6 µM (inactive)	15.2 µM (inactive)
